Results on eight molecules are retold here after patent publication US5929039A, “Method for treating cardiac dysfunction and pharmaceutical compositions useful therefor” (Baker Medical Research Institute, priority 1993, dated 1999).

Data set [1] concerns [3H]-labelled inositol phosphate accumulation. The experiment in a line: [3H]-labelled inositol phosphate accumulation in isolated perfused rat hearts under ischaemia and post-ischaemic reperfusion. Particulars: for average inhibition of [3H]-labelled inositol phosphate accumulation: vs 2 min post-ischaemic reperfusion without neomycin. The protocol: (§1) Adult male sprague dawley rats 250-300 g were used. Where indicated, rats were treated with reserpine (5 mg/kg I.P. for 18 hrs prior to killing) to deplete endogenous noradrenaline stores.. Rats were heparinized 1 U/g I.P. 30 minutes prior to killing by decapitation. Hearts were rapidly excised and immediately chilled in ice-cold saline. Under ice-cold solution, hearts were cannulated via the ascending aorta as described by Langendorff and perfused retrogradely at a rate of 5 ml/min with HEPES-buffered Krebs solution equilibrated with 5%CO2 -95%O2 at 37° C. Initial perfusion was in a non-recirculating manner to remove internal blood. Hearts were allowed to warm up gradually and, when free of internal blood, transferred to a 37° C. water-jacketed organ bath containing carbogenated Krebs medium, and perfusion continued in a recirculating manner. Following a 15 minute equilibration period, hearts were labelled with [^3 H]-inositol, 2 μCi/ml for 2 h. Hearts were monitored throughout the labelling period for strong rhythmic beating.
(§2) Following labelling, the [^3 H]-inositol-containing medium was removed, and replaced with Krebs medium containing propranolol (10^-6 M) and lithium chloride (50 mM) to block β-adrenergic receptors and to inhibit InsP metabolism by InsP 1'-phosphatase respectively (20). Hearts were perfused with propranolol, LiCi solution for 10 minutes prior to ischaemia. Antagonists, when administered, were included in this 10 minute preincubation. Normothermic global ischaemia was induced by terminating perfusion for various times up to 30 minutes. Reperfusion was examined following a 20 minute ischaemic period by resuming perfusion at 5 ml/min. Reactions were terminated by freezing hearts in liquid N2 following excision at the atrioventricular junction. Frozen ventricles were weighed and inositol phosphates extracted as described below.
(§3) Inositol phosphates were extracted from ventricle samples in 3.5 ml ice-cold 5% trichloroacetic acid (TCA), 2.5 mM EDTA, 5 mM phytate solution, as described previously (21). Briefly, ventricles were homogenised with two 10 second passes of a "Polytron" homogenizer separated by 15 second periods on ice. Samples were homogenised further using a Potter-Elvejheim homogeniser followed by brief sonication. Homogenised samples were centrifuged (5000 rpm, 10 min, 4° C.) to remove TCA insoluble material. Supernatants were collected, and the remaining pellet re-extracted in 1.5 ml TCA, EDTA, phytate. Supernatants were pooled and freon, tri-n-ocylamine (1:1 v/v 0.75 ml:1 ml TCA solution) was added, mixed thoroughly, and phases separated by low speed centrifugation (2000 rpm, 10 min 4° C.). The resultant aqueous phase, containing inositol phosphates was collected and treated with proteinase K (50 μg/ml, 2 hr, 50° C.). This process was necessary to preserve the chromatography column. Treated samples were passed through a 1 ml Dowex-50 column (4% cross-linked 4-400 mesh size) and eluted with 1 ml water (22). Urea (0.05 M final) was added (23) and samples lyophilized prior to high performance liquid chromatography (HPLC) analysis. Recovery of inositol phosphates using this method was greater than 95% for each isomer, as estimated by addition of [^3 H]-labelled standards to extractions of unlabelled hearts.
(§4) Inositol phosphates were separated by an anion-exchange HPLC system using a Whatman Partisil 10μ SAX column in a Waters Radial Compression Unit, employing a complex ammonium phosphate gradient, pH 3.8 from 0-2 M as described previously (24). Inositol phosphates were detected and quantitated using an on-line […] (model CR, Radiomatic Instruments) All peaks were identified by comparison with commercial standards. Nucleotide standards AMP, ADP, and ATP were run with samples to assess column performance.
(§5) Values presented are mean ±SEM, for n=4 unless otherwise stated. Statistical analysis of results involved Students' unpaired "t-test" for all InsP data.

For data set [2], the system named is hearts from reserpinized rats. Nature of the data set: Arrhythmic effect of thrombin under reperfusion conditions, perfused hearts from reserpinized rats. Particulars: for VF% / VT%: n 9. Further details: species or system rat. The protocol:
(§6) A model of in situ perfused rat hearts subjected to 20 minutes coronary artery occlusion to induce ischaemia, followed by reperfusion was used to investigate reperfusion-induced arrhythmias.
(§7) Rats (250-300 g) were anaesthetised (pentobarbitone 60 mg/kg, I.P.) and heparinised (200 U/rat I.V.) The thorax was then opened and a metal cannula (ID 1 mm) inserted and tied into the ascending aorta, to commence Langendorff perfusion in situ (31). The interval from opening the chest to commencing heart perfusion was between 50 and 70 seconds. The perfusate was Krebs buffer, with coronary flow controlled by a Ismatac peristaltic pump at a rate of 5 ml/g heart weight/min for the non-ischaemic perfusion. At this flow rate the coronary perfusion pressure was between 32-38 mmHg, measured by pressure transducer (Gould Statham model p23) connected to the sidearm of the perfusion line. Following aortic cancellation, pulmonary vessels were tied off. In some preparations, ventricular pressure was measured by inserting a Millar micro-tip transducer catheter into the left ventricular cavity via the apex. All parameters--coronary perfusion pressure, ventricular pressure, and epicardial ECG, were constantly recorded on a Grass model 7 polygraph. Two hearts were perfused and simultaneously studied.
(§8) A silk suture (4.0) was positioned loosely around the left coronary artery 2-3 mm from its origin. Two silk releasing rings were placed around the suture for subsequent release of occlusion. Successful occlusion of the artery, inducing regional ischaemia, was indicated by increases in coronary perfusion pressure of at least 30%. Perfusion pressure was adjusted to non-ischaemic perfusion levels during the ischaemic period.
(§9) Drugs were added to the perfusion via a Harvard Model 22 pump. The drug flow was less than 1% of perfusion flow to ensure constant perfusate parameters. Unless mentioned otherwise, the drugs were present 10 minutes before, and during the entire ischaemic and reperfusion periods.
(§10) Heart preparations were allowed to stabilise for at least 20 minutes prior to commencing studies. Following 10 minute drug incubation, the left coronary artery was ligated to induce local ischaemia, for a period of 20 minutes. At the end of this ischaemic period, the ligature was released and hearts perfused at pre-ischaemic flow for a period of 5 minutes. Ventricular arrhythmias, occurring during ischaemia or during the first 2 minutes of reperfusion were defined according to the Lambeth Conventions (32).
The finding that thrombin directly stimulated release of Ins(1,4,5)P3 in heart indicates the possibility that thrombin might cause arrhythmias directly via this mechanism. Experiments were performed using hearts from reserpinized rats so that arrhythmic events initiated by noradrenaline were eliminated. Reperfusion arrhythmias were not observed in hearts from reserpinized animals. […] Furthermore, these arrhythmias were inhibited by gentamicin, indicating a relationship to release of Ins(1,4,5)P3 (Table 2).

Data set [3] has as its system Ins(1,4,5)P3 release. Nature of the data set: Ins(1,4,5)P3 mass in isolated perfused rat hearts, 2 min reperfusion after 20 min global ischaemia (competitive binding assay). To be noted: for Ins(1,4,5)P3 mass: control 200 ± 18. Here is the method: as §1, §2, §3
Mass of Ins(1,4,5)P3 was measured using a competitive binding assay (Amersham TRK 1000) essentially as described previously (26). Ventricle samples were prepared as described above except for the omission of [^3 H]-label during the 2 hr perfusion of hearts prior to ischaemia, and for the use of 5 mm ATP instead of phytate in the extraction procedure.
Protein concentration was determined in aliquots of TCA pellet following InsP extraction using a modified Lowry method with Bovine Serum Albumin as a standard.
as §5

Data set [4] deals with in situ perfused rat hearts. To be noted: for Reperfusion-induced arrhythmias VF % incidence / Reperfusion-induced arrhythmias VT % incidence: control 83. The protocol: as §6, §7, §8, §9, §10
Incidence of arrhythmias was analysed using a .chi.^2 test, with n≥8 for each group.

Data set [5] deals with inositol phosphate accumulation in heart tissue. The experiment in a line: Inositol phosphate accumulation in healthy (normoxic) heart tissue. Details: species or system rat. To be noted: healthy heart tissue. Here is the method: as §1, §3, §4
For another data set, the system named is PI-PLC kidney cy. Particulars: cytosolic enzyme; from the literature (35); cited from earlier work.
The next data set concerns PI-PLC kidney me. Particulars: membrane enzyme; from the literature (35); cited from earlier work.
A further data set concerns PI-PLC heart rep. The experiment in a line: Inhibition of PI-PLC in hearts under reperfusion conditions. Further details: species or system rat. The protocol:
as §1, §2
Mass of Ins(1,4,5)P3 was measured using a competitive binding assay (Amersham TRK 1000) essentially as described previously (26). […]

The subject of data set [6] is Ins(1,4,5)P3 release. Nature of the data set: Thrombin-stimulated release of Ins(1,4,5)P3 in heart tissue.
Where [7] appears, read: hearts from reserpinized rats, no thrombin.
Setting [8] is: 0.5 mM, 2 min reperfusion after 20 min global ischaemia.
Where [9] appears, read: 5 mM, 2 min reperfusion after 20 min global ischaemia.
Where [10] appears, read: 25 μg/kg I.P. 48 h prior to experimentation.
Where [11] appears, read: thrombin 2 U/ml in perfusate, reserpinized hearts.

Like-named read-outs stand apart in the source and are kept apart here.

In the case of `NC[C@H](O)c1ccc(O)c(O)c1` [noradrenaline], the “release of [3H]-labelled Ins(1,4,5)P3 on reperfusion” value in data set [1] (10^-4 M perfusion, reserpinized animals) is recorded as “reinstated”.

Consider `COc1cc2nc(N3CCN(C(=O)c4ccco4)CC3)nc(N)c2cc1OC` [prazosin], for which the “2 minute reperfusion inositol phosphate response” value in [1] (10 μM) is on record as “inhibited”. Also, the “redistribution of [3H]-labelled inositol phosphates under ischaemic conditions” value in data set [1] (global ischaemia, α1 adrenoceptor blockade) was “unaffected”.

Take `COC(=O)[C@H]1[C@H]2C[C@@H]3c4[nH]c5cc(OC)ccc5c4CCN3C[C@H]2C[C@@H](OC(=O)c2cc(OC)c(OC)c(OC)c2)[C@@H]1OC` [reserpine]: in [2] (setting [7]), the VF% came out at 0% and the VT% was determined as 44%. In addition, in data set [1] (prior reserpine treatment (5 mg/kg I.P. 18 hrs)), the “rapid accumulation of inositol phosphates at 2 minutes post-ischaemic reperfusion” value is “prevented”.

`NCCCNCCCCNCCCN` [spermine]: the “inhibition of reperfusion-induced Ins(1,4,5)P3 release” value with Ins(1,4,5)P3 release [3] is given as “inhibitory”. In addition, the “Ins(1,4,5)P3 mass” value in the data set with Ins(1,4,5)P3 release [3] (setting [8]) was 182 + 4 pmol/mg protein; in the data set with Ins(1,4,5)P3 release [3] (setting [9]), 160 ± 9 pmol/mg protein. The “effect on reperfusion arrhythmias” value in data set [4] is “inhibited”. Moreover, the “Reperfusion-induced arrhythmias VF % incidence” value in data set [4] (0.5 mM) came out at 36%; in data set [4] (5 mM) it was 20%. The “Reperfusion-induced arrhythmias VT % incidence” value in data set [4] (0.5 mM) is listed as 63%; in [4] (5 mM) it was 30%.

Consider `CN[C@@H]1C[C@H]2O[C@@](C)([C@@H]1OC)n1c3ccccc3c3c4c(c5c6ccccc6n2c5c31)C(=O)NC4` [staurosporine], for which, in [4] (10^-7 M), the “percentage incidence of reperfusion-induced arrhythmias vs untreated controls” value was “did not significantly alter”. In addition, in [4] (.1 μM), the “Reperfusion-induced arrhythmias VF % incidence” value turned out to be 69% and the “Reperfusion-induced arrhythmias VT % incidence” value is recorded as 83%.

Regarding Pertussis toxin [PTX], the “Ins(1,4,5)P3 mass” value in the data set with Ins(1,4,5)P3 release [3] (setting [10]) is given as 128 ± 28 pmol/mg protein. In addition, in [4] (setting [10]), the “Reperfusion-induced arrhythmias VF % incidence” value is 10% and the “Reperfusion-induced arrhythmias VT % incidence” value is 40%.

As usually defined, the EC50 is the concentration at which the effect is half-maximal. In the case of neomycin, the “effect on accumulations of Inositol phosphate1 and Inositol phosphate2” value in [5] (5 mM) was “without effect”. Further, in data set [5] (5 mM), the “reduction in accumulation of [3H]Ins(1,4,5)P3” value came to 20%. Moreover, the “effect on inositol phosphate accumulation” value in data set [5] (concentrations lower than 5 mM) is “ineffective”. The “Ins(1,4,5)P3 mass” value with Ins(1,4,5)P3 release [3] (0.05 mM, 2 min reperfusion after 20 min global ischaemia, mean±SEM, 4 hearts) was 184 ± 7 pmol/mg protein; in the data set on Ins(1,4,5)P3 release [3] (setting [8]), 121 ± 11 pmol/mg protein; in the data set on Ins(1,4,5)P3 release [3] (setting [9]), 104 ± 12 pmol/mg protein. For the same molecule, the values for the EC50 with PI-PLC kidney cy, in the data set on PI-PLC kidney me and with PI-PLC heart rep were 30 µM, 200 µM and 400 µM, respectively. Also, the “inhibition of accumulation of [3H]-labelled inositol phosphates” value in data set [1] (0.05 mM, added 10 min prior to ischaemia, 2 min reperfusion) was “did not significantly inhibit”. In addition, the results for the “average inhibition of [3H]-labelled inositol phosphate accumulation” value in data set [1] (0.5 mM) and in [1] (5 mM) were 45% and 55%, respectively. In data set [1] (reperfusion vs healthy heart), the “increase in sensitivity of myocardial tissue to neomycin during post-ischaemic reperfusion” value is “more than 10 fold”. The “rats showing both severe VT and VF throughout reperfusion” value in data set [4] (0.05 mM) is 6 out of 8. Moreover, the “Reperfusion-induced arrhythmias VF % incidence” value was determined as 70% in data set [4] (0.05 mM), 0% in [4] (0.5 mM) and 0% in data set [4] (5 mM). Besides, the “Reperfusion-induced arrhythmias VT % incidence” value in data set [4] (0.05 mM) was found to be 75%; in data set [4] (0.5 mM), 0%; in [4] (5 mM), 0%. Moreover, the “rats exhibiting VT or VF on reperfusion” value in data set [4] (0.5 mM) is “none of the 10 rats”. For the same molecule, the “heart rate and ventricular pressure” value in data set [4] (0.5 mM, after 10 minute incubation prior to occlusion) is given as “not significantly differing from control”.

For the molecule thrombin, the reperfusion arrhythmias entry in data set [2] (thrombin 2 U/ml added to perfusate, reserpinized hearts) was “high incidence”. In [2] (setting [11]), this molecule gave a VF% of 67% and a VT% of 89%. Further, in the data set with Ins(1,4,5)P3 release [6], the “release of Ins(1,4,5)P3 in heart tissue” value is “directly stimulates release”.
